From patent US8779158B2, “Trisubstituted pyrazoles as acetylcholine receptor modulators” (Janssen Pharmaceutica NV, priority 2008, dated 2014)

Molecular target: T1, hα7-wt nAChR (Homo sapiens, UniProt P36544)
T1 construct: expressed in transfected cells
Test: Ca2+ flux imaging (FDSS) (Protocol B), potentiation of the choline response
Type: cell-based
Settings: Ca2+ assay as described in D.1; for EC50: "<5" = activity did not reach a top plateau at maximal concentration; for Emax at 30 µM / Emax: read-out: % Efficacy
Procedure: Ca^2+ Flux Imaging (FDSS) (Protocol B)
• Hanks buffered saline solution (HBSS, Invitrogen, Belgium), supplemented with 10 mM HEPES (Invitrogen, Belgium), CaCl2 to a final concentration of 5 mM, 0.1% Bovine serum albumin (Sigma-Aldrich NV, Belgium). b) Calcium-Sensitive Dye—Fluo-4AM • Fluo-4AM (Molecular Probes, USA) was dissolved in DMSO containing 10% Pluronic acid (Molecular Probes, USA) to give a stock solution which was diluted in assay buffer supplemented with 5 mM probenicid (Sigma, Aldrich NV, Belgium) to give a final concentration of 2 μM. c) 384-Well Plates • Black 384 well plate black/clear plates, PDL pre-coated (Corning, Incorporated, USA) d) Calcium Flux Measurement • A Functional drug screening system (FDSS, Hamamatsu) was used to measure intracellular free-calcium flux signals. Method
Monolayers of hα7-wt nAChR-expressing cells were grown in multi-well plates, in particular black-sided, transparent bottomed 384 well plates coated with poly-D-lysine for 24 hours prior to loading with a fluorescent calcium indicator, in a particular embodiment loading with fluo-4AM for up to 120 minutes.
PAM activity was detected in real time by applying the compounds to be tested to the loaded cells along with a α7 nicotinic receptor agonist during constant monitoring of cellular fluorescence in a FDSS. Compounds giving peak fluorescent responses greater than the response due to agonist alone, were considered to be α7 nAChR PAM's. In a particular embodiment, the α7 nicotinic receptor agonist was choline, a more particular embodiment choline applied at a sub-maximal concentration of 100 μM. In a further setting of the present invention the compounds to be tested were applied prior to the α7 nicotinic receptor agonist, in a particular embodiment up to 10 minutes prior to the agonist.
A control response to choline was calculated on each plate from the difference in peak in fluorescence in wells receiving either choline or assay buffer alone. Compounds of the present invention were tested at a concentration range from 0.01 μM to 30 μM. Compounds were considered to have an interesting activity when they potentiated the choline signal at least with 200% when tested at a concentration of 30 μM (the efficacy of 100 μM choline was defined as 100% in the absence of a PAM). An EC50 (or pEC50) was determined as a concentration relating to half the maximal effect, when a clear sigmoidal curve with top plateau was obtained.

T1 sequence (P36544 23-502): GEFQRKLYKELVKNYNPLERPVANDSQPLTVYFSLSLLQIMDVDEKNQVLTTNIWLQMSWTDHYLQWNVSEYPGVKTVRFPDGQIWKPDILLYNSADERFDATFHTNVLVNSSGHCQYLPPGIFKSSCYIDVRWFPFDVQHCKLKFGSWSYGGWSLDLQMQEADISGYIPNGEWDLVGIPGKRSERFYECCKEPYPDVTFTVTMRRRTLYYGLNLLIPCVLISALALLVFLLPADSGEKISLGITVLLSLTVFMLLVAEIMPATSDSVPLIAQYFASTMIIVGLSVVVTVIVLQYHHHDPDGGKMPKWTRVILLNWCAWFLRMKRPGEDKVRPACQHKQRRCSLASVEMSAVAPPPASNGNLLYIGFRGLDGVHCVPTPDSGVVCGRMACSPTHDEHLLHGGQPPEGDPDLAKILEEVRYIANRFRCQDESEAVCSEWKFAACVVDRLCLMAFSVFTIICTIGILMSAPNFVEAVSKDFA

EC50 | Emax at 30 µM | Emax | SMILES
145 nM | – | – | COc1cccc(-c2cc(Nc3ccc(F)c(F)c3)nn2CCC(=O)N(C)C)c1Cl [compound 11]
> 10000 nM | 967% | – | CNC(=O)Cn1nc(Nc2cccc(C(F)(F)F)c2)cc1-c1cccnc1 [compound 13]
5130 nM | – | – | CNC(=O)Cn1nc(Nc2cccc(OC(F)(F)F)c2)cc1-c1cccnc1 [compound 14]
> 10000 nM | 832% | – | CNC(=O)Cn1nc(Nc2cc(F)c(F)c(F)c2)cc1-c1cccnc1 [compound 15]
> 10000 nM | – | – | CCNC(=O)Cn1nc(Nc2ccc(F)c(F)c2)cc1-c1cccnc1 [compound 16]
> 10000 nM | – | – | CCNC(=O)Cn1nc(Nc2cccc(OC(F)(F)F)c2)cc1-c1cccnc1 [compound 17]
> 10000 nM | 592% | – | CCNC(=O)Cn1nc(Nc2cccc(C(F)(F)F)c2)cc1-c1cccnc1 [compound 18]
> 10000 nM | – | – | CCNC(=O)Cn1nc(Nc2ccc(F)c(F)c2)cc1-c1ccncc1 [compound 20]
2140 nM | – | 300% | Cc1ccnc(-c2cc(Nc3ccc(F)c(F)c3)nn2C[C@H](C)O)c1 [compound 24]
933 nM | – | 500% | Cc1ccnc(-c2cc(Nc3ccc(F)c(C(F)(F)F)c3)nn2C[C@H](C)O)c1 [compound 25]
2750 nM | – | 800% | Cc1ccnc(-c2cc(Nc3cc(F)cc(F)c3)nn2CCC(=O)N(C)C)c1 [compound 26]
1120 nM | – | 500% | CC[C@H](O)Cn1nc(Nc2ccc(F)c(C(F)(F)F)c2)cc1-c1ccc(C)nc1 [compound 29]
> 10000 nM | – | – | CNC(=O)Cn1nc(Nc2cc(F)cc(C(F)(F)F)c2)cc1-c1ccncc1C [compound 30]
2690 nM | – | – | CCNC(=O)Cn1nc(Nc2cc(F)cc(C(F)(F)F)c2)cc1-c1ccncc1C [compound 31]
1780 nM | – | – | CNC(=O)Cn1nc(Nc2cc(F)cc(Cl)c2)cc1-c1ccnc(C)c1 [compound 33]
3390 nM | – | – | CNC(=O)Cn1nc(Nc2ccc(F)c(C(F)(F)F)c2)cc1-c1ccnc(C)c1 [compound 34]
1000 nM | – | – | CCNC(=O)Cn1nc(Nc2cccc(OC(F)(F)F)c2)cc1-c1ccnc(C)c1 [compound 37]
776 nM | – | – | CCNC(=O)Cn1nc(Nc2cc(F)cc(Cl)c2)cc1-c1ccnc(C)c1 [compound 39]
389 nM | – | – | Cc1cc(-c2cc(Nc3cc(F)cc(Cl)c3)nn2CCC(=O)N(C)C)ccn1 [compound 41]
1120 nM | – | 200% | Cc1cc(-c2cc(Nc3cc(F)cc(Cl)c3)nn2C[C@H](C)O)ccn1 [compound 42]
1230 nM | – | 400% | Cc1cc(-c2cc(Nc3cc(F)c(F)c(F)c3)nn2C[C@H](C)O)ccn1 [compound 44]

EC50 | Emax at 30 µM | Emax | SMILES
437 nM | – | – | CC[C@H](O)Cn1nc(Nc2cc(F)cc(F)c2)cc1-c1ccnc(Cl)c1 [compound 47]
1820 nM | – | 500% | Cc1cc(-c2cc(Nc3ccc(F)c(C(F)(F)F)c3)nn2CC[C@H](C)O)ccn1 [compound 49]
6170 nM | – | 496% | CNC(=O)Cn1nc(Nc2cc(OC)cc(C(F)(F)F)c2)cc1-c1ccnc(C)c1C [compound 50]
912 nM | – | – | COc1cc(Nc2cc(-c3ccnc(C)c3C)n(CCC(=O)N(C)C)n2)cc(C(F)(F)F)c1 [compound 52]
501 nM | – | – | Cc1cc(-c2cc(Nc3ccc(F)c(F)c3)nn2CCC(=O)N(C)C)cc(Cl)n1 [compound 60]
> 10000 nM | – | – | CNC(=O)Cn1nc(Nc2ccc(F)c(F)c2)cc1-c1ccnc(NC)c1 [compound 61]
3980 nM | – | 700% | CCNc1cc(-c2cc(Nc3cc(OC)cc(C(F)(F)F)c3)nn2C[C@H](C)O)ccn1 [compound 63]
1410 nM | – | 500% | CCNc1cc(-c2cc(Nc3cc(F)cc(C(F)(F)F)c3)nn2C[C@H](C)O)ccn1 [compound 64]
> 10000 nM | – | – | CCNc1cc(-c2cc(Nc3ccc(F)c(F)c3)nn2C[C@H](C)O)cc(C)n1 [compound 66]
1380 nM | – | 800% | CCNc1cc(-c2cc(Nc3ccc(F)c(C(F)(F)F)c3)nn2C[C@H](C)O)cc(C)n1 [compound 67]
794 nM | – | 400% | Cc1cc(-c2cc(Nc3ccc(F)c(C(F)(F)F)c3)nn2C[C@H](C)O)cc(N(C)C)n1 [compound 69]
219 nM | – | – | CNC(=O)Cn1nc(Nc2ccc(F)c(C(F)(F)F)c2)cc1-c1ccc2c(c1)OCCO2 [compound 75]
302 nM | – | – | CCNC(=O)Cn1nc(Nc2cc(F)c(F)c(F)c2)cc1-c1ccc2c(c1)OCCO2 [compound 78]
219 nM | – | – | CCNC(=O)Cn1nc(Nc2cccc(C(F)(F)F)c2)cc1-c1ccc2c(c1)OCCO2 [compound 79]
204 nM | – | – | CCNC(=O)Cn1nc(Nc2cccc(OC(F)(F)F)c2)cc1-c1ccc2c(c1)OCCO2 [compound 80]
214 nM | – | – | CCNC(=O)Cn1nc(Nc2ccc(F)c(C(F)(F)F)c2)cc1-c1ccc2c(c1)OCCO2 [compound 81]
135 nM | – | – | CN(C)C(=O)CCn1nc(Nc2cccc(F)c2)cc1-c1ccc2c(c1)OCCO2 [compound 82]
51.3 nM | – | – | CN(C)C(=O)CCn1nc(Nc2ccc(F)c(F)c2)cc1-c1ccc2c(c1)OCCO2 [compound 84]
309 nM | – | – | CN(C)C(=O)CCn1nc(Nc2ccc3c(c2)OC(F)(F)O3)cc1-c1ccncc1 [compound 88]
> 10000 nM | – | – | CNC(=O)Cn1nc(Nc2ccc3c(c2)OC(F)(F)O3)cc1-c1ccncc1C [compound 89]
324 nM | – | – | CCNC(=O)Cn1nc(Nc2ccc3c(c2)OC(F)(F)O3)cc1-c1ccc2c(c1)OCCO2 [compound 98]

EC50 | Emax at 30 µM | Emax | SMILES
955 nM | – | – | CC[C@H](O)Cn1nc(Nc2cc(OC)cc(C(F)(F)F)c2)cc1-c1ccnc(COC)c1 [compound 99]
151 nM | – | – | CC[C@H](O)Cn1nc(Nc2cc(OC)cc(C(F)(F)F)c2)cc1-c1cc(C)nc(C)c1 [compound 101]
3160 nM | – | – | CNC(=O)Cn1nc(Nc2cc(OC)cc(C(F)(F)F)c2)cc1-c1cc(C)nc(C)c1 [compound 105]
1780 nM | – | 559% | CNC(=O)Cn1nc(Nc2cc(F)c(F)c(F)c2)cc1-c1ccnc(C)c1 [compound 109]
1320 nM | – | – | CC[C@H](O)Cn1nc(Nc2cccc(C(F)(F)F)c2)cc1-c1ccnc(COC)c1 [compound 113]
1150 nM | – | – | CNC(=O)Cn1nc(Nc2ccc(F)c(C(F)(F)F)c2)cc1-c1cc(C)nc(C)c1 [compound 114]
1260 nM | – | 516% | CC[C@H](O)Cn1nc(Nc2cc(OC)cc(C(F)(F)F)c2)cc1-c1ccnc(C)c1Cl [compound 115]
1230 nM | – | 596% | Cc1cc(-c2cc(Nc3ccc(F)c(F)c3F)nn2CC(=O)NC2CC2)ccn1 [compound 116]
1480 nM | – | 835% | CNC(=O)Cn1nc(Nc2cccc(C(F)(F)F)c2)cc1-c1cc(C)nc(C)c1 [compound 117]
1150 nM | – | 969% | CNC(=O)Cn1nc(Nc2ccc(F)c(F)c2F)cc1-c1cc(C)nc(C)c1 [compound 120]
1020 nM | – | 616% | CNC(=O)Cn1nc(Nc2cc(F)c(F)c(F)c2)cc1-c1cc(C)nc(C)c1 [compound 127]
933 nM | – | 726% | CNC(=O)Cn1nc(Nc2cccc(OC(F)(F)F)c2)cc1-c1cc(C)nc(C)c1 [compound 129]
776 nM | – | 409% | CCNc1cc(-c2cc(Nc3ccc(F)c(F)c3F)nn2C[C@H](C)O)ccn1 [compound 133]
617 nM | – | 686% | COc1cc(Nc2cc(-c3cc(C)nc(C)c3)n(CC(=O)NC3CC3)n2)cc(C(F)(F)F)c1 [compound 138]
646 nM | – | 710% | CCNC(=O)Cn1nc(Nc2cccc(OC(F)(F)F)c2)cc1-c1cc(C)nc(C)c1 [compound 139]
562 nM | – | 519% | CNC(=O)Cn1nc(Nc2cccc(Cl)c2F)cc1-c1cc(C)nc(C)c1 [compound 141]
437 nM | – | 444% | Cc1cc(-c2cc(Nc3cccc(C(F)(F)F)c3)nn2CC(=O)NC2CCC2)cc(C)n1 [compound 144]
603 nM | – | 643% | Cc1cc(-c2cc(Nc3cccc(OC(F)(F)F)c3)nn2CC(=O)NC2CC2)cc(C)n1 [compound 147]
468 nM | – | – | CCNC(=O)Cn1nc(Nc2ccc(F)c(F)c2F)cc1-c1cc(C)nc(C)c1 [compound 148]
525 nM | – | 568% | Cc1cc(-c2cc(Nc3cccc(C(F)(F)F)c3)nn2CC(=O)NC2CC2)cc(C)n1 [compound 150]
380 nM | – | 975% | Cc1cc(-c2cc(Nc3ccc(F)c(F)c3F)nn2CC(=O)NC2CC2)cc(C)n1 [compound 156]
